Source: patent US8975276B2, “Inhibitors of PDE10” (Bristol-Myers Squibb Company, priority 2011, dated 2015)
Structures can show the parent of a compound that is named as a salt. Where two headings read alike, the source gives them in different places.

Target: PDE10 (Homo sapiens (Human), UniProt Q9Y233)
Test: LE_PDE10A inhibition assay (scintillation proximity assay, cAMP hydrolysis)
Type: biochemical
Conditions: SPA, 3H-cAMP substrate at Km 25 nM
Protocol: LE_PDE10A Inhibition Assay:
The PDE10 inhibition assay in 384-well plates was conducted to identify substances for the inhibition of cyclic nucleotide hydrolysis by the PDE10 enzyme. […] PDE10 activity was measured using Scintillation Proximity Assay (SPA)-based methods. PDE10 catalyses the hydrolysis of the intracellular messenger adenosine […] (cAMP) to the non-cyclic adenosine 5′-monophosphate (AMP). The SPA assay was based upon the selective interaction of the tritiated product with yttrium oxide LEADseeker beads.
The assay buffer contained 25 mM HEPES pH 7.4, 2.5 mM Magnesium Chloride and 0.1% BSA. […] The reaction was terminated by adding 6 μL of 5 mg/mL of yttrium oxide LEADseeker beads. The beads were allowed to settle for 3 hours before plates were read in the LEEDSeaker for 6 minutes. The measured signal could be converted to activity relative to an […] control (100%). IC50 values were calculated by using in-house data software and IC50 values were generated by nonlinear regression analysis. (Bristol-Myers Squibb Company, Wallingford, Conn.).

Sequence of PDE10 (Q9Y233 whole entry): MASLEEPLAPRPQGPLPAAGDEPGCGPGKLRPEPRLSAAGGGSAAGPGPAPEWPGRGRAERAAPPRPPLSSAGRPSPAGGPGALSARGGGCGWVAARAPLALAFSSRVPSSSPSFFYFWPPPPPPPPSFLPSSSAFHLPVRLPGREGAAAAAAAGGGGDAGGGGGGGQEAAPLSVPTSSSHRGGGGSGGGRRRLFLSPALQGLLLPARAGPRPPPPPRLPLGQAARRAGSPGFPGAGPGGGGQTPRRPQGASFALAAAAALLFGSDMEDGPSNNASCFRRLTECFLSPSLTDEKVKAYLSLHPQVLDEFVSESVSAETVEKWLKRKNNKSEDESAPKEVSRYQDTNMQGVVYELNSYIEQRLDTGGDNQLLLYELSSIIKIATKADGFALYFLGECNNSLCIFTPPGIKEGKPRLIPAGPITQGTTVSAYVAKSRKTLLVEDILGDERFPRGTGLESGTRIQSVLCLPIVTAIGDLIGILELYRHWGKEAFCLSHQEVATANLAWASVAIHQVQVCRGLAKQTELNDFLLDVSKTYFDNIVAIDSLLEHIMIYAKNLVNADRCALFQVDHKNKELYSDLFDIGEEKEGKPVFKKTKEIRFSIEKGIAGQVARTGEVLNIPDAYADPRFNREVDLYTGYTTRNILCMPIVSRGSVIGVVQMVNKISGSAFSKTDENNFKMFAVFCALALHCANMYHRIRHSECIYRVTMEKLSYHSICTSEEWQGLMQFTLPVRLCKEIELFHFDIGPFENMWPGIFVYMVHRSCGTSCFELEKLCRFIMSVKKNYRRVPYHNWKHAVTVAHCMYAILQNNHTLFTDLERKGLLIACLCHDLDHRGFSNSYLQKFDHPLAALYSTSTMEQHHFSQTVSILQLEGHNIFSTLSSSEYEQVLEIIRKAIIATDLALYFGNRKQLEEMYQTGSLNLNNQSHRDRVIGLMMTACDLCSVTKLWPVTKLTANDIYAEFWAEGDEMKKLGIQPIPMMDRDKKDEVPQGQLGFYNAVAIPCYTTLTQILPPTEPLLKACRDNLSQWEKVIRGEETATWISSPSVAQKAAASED

| SMILES | IC50 (read-out: PDE10 IC50 (Range)) [nM] | IC50 (read-out: PDE10 IC50) [nM] |
| --- | --- | --- |
| Cc1ncc(C)n2nc(-c3ccn4cc(-c5cnccn5)nc4c3)nc12 [Example 22, 5,8-dimethyl-2-(2-(pyrazin-2-yl)imidazo[1,2-a]pyridin-7-yl)-[1,2,4]triazolo[1,5-a]pyrazine] | 1 to 100 | – |
| Cc1nccn2nc(-c3ccn4cc(-c5ccccn5)nc4c3)nc12 [Example 20, 8-methyl-2-(2-(pyridin-2-yl)imidazo[1,2-a]pyridin-7-yl)-[1,2,4]triazolo[1,5-a]pyrazine, 2 HCl] | 1 to 100 | – |
| Cc1nccn2nc(-c3ccn4cc(-c5ccccc5)nc4c3)nc12 [Example 19, 8-methyl-2-(2-phenylimidazo[1,2-a]pyridin-7-yl)-1,2,41-triazolo[1,5-a]pyrazine, 2 HCl] | 1 to 100 | – |
| Cc1ncc(C)n2nc(-c3ccn4cc(-c5ccc(Cl)cc5)nc4c3)nc12 [Example 6, 2-(2-(4-chlorophenyl)imidazo[1,2-a]pyridin-7-yl)-5,8-dimethyl-[1,2,4]triazolo[1,5-a]pyrazine] | 1 to 100 | – |
| Cc1nccn2nc(-c3ccn4cc(-c5cccc(C6CC6)c5)nc4c3)nc12 [Example 24, 2-(2-(3-cyclopropylphenyl)imidazo[1,2-a]pyridin-7-yl)-8-methyl-[1,2,4]triazolo[1,5-a]pyrazine] | 1 to 100 | – |
| Cc1ncc(C)n2nc(-c3ccn4cc(-c5cccc(C6CC6)c5)nc4c3)nc12 [Example 26, 2-(2-(3-cyclopropylphenyl)imidazo[1,2-a]pyridin-7-yl)-5,8-dimethyl-1,2,41-triazolo[1,5-a]pyrazine] | – | 0.33 |
| Cc1ncc(C)n2nc(-c3ccn4cc(-c5ccccn5)nc4c3)nc12 [Example 14, 5,8-dimethyl-2-(2-(pyridin-2-yl)imidazo[1,2-a]pyridin-7-yl)-[1,2,4]triazolo[1,5-a]pyrazine] | – | 0.16 |
| Cc1ccc(-c2cn3ccc(-c4nc5c(C)ncc(C)n5n4)cc3n2)c(C)c1 [Example 7, 2-(2-(2,4-dimethylphenyl)imidazo[1,2-a]pyridin-7-yl)-5,8-dimethyl-[1,2,4]triazolo[1,5-a]pyrazine] | 1 to 100 | 11 |
| Cc1ncc(C)n2nc(-c3ccn4cc(-c5cccc(N6CC[C@H](F)C6)c5)nc4c3)nc12 [Example 28, (S)-2-(2-(3-(3-fluoropyrrolidin-1-yl)phenyl)imidazo[1,2-a]pyridin-7-yl)-5,8-dimethyl-[1,2,4]triazolo[1,5-a]pyrazine] | – | 0.16 |
| Cc1ncc(C)n2nc(-c3ccn4cc(-c5ccc(C#N)cc5)nc4c3)nc12 [Example 16, 4-(7-(5,8-dimethyl-[1,2,4]triazolo[1,5-a]pyrazin-2-yl)-imidazo[1,2-a]pyridin-2-yl)benzonitrile] | 1 to 100 | – |
| Cc1nccn2nc(-c3ccn4c(C)c(-c5ccccc5)nc4c3)nc12 [Example 29, 8-methyl-2-(3-methyl-2-phenylimidazo[1,2-a]pyridin-7-yl)-[1,2,4]triazolo[1,5-a]pyrazine] | 1 to 100 | 2.4 |
| Cc1nccn2nc(-c3ccn4cc(-c5cccc(Br)c5)nc4c3)nc12 [Example 23, 2-(2-(3-bromophenyl)imidazo[1,2-a]pyridin-7-yl)-8-methyl-[1,2,4]triazolo[1,5-a]pyrazine] | 1 to 100 | – |
| Cc1ncc(C)n2nc(-c3ccn4cc(C5CC5)nc4c3)nc12 [Example 21, 2-(2-cyclopropylimidazo[1,2-a]pyridin-7-yl)-5,8-dimethyl-[1,2,4]triazolo[1,5-a]pyrazine] | 1 to 100 | 26 |
| Cc1ncc(C)n2nc(-c3cc4nc(-c5ccccc5)cn4cc3N3CCCC3)nc12 [Example 17, 5,8-dimethyl-2-(2-phenyl-6-(pyrrolidin-1-yl)imidazo[1,2-a]pyridin-7-yl)-[1,2,4]triazolo[1,5-a]pyrazine] | 1 to 100 | 3.5 |
| Cc1ncc(C)n2nc(-c3ccn4cc(-c5ccccc5)nc4c3)nc12 [Example 1, 5,8-dimethyl-2-(2-phenylimidazo[1,2-a]pyridin-7-yl)-[1,2,4]triazolo[1,5-a]pyrazine] | – | 0.1 |
